This note sets out measurements from patent US20250186562A1, “TARGET SUBSTRATE PROTEIN DEGRADATION PLATFORM” (The Regents of the University of California, priority 2022, published 2025).

This test addresses ERRα protein (Homo sapiens (Human), UniProt P11474). Briefly: ERRα protein level in Hela cells by Western blot. It is filed as cell-based. The conditions noted are these: Hela cells treated overnight at 100 nM, 33.3 nM, and 11.1 nM; Western blot of whole cell lysates. As to the method:
In this experiment, Hela cells were treated overnight at a concentration of 100 nM, 33.3 nM, and 11.1 nM with the above peptidomimetic compound. The ERRα protein was detected by Western blot from whole cell lysates. Glyceraldehyde 3-phosphate dehydrogenase (GAPDH) was blotted as loading control.
(In general: Immunoblotting shows a protein as a band on a membrane.)

ERRα protein, sequence (P11474 whole entry): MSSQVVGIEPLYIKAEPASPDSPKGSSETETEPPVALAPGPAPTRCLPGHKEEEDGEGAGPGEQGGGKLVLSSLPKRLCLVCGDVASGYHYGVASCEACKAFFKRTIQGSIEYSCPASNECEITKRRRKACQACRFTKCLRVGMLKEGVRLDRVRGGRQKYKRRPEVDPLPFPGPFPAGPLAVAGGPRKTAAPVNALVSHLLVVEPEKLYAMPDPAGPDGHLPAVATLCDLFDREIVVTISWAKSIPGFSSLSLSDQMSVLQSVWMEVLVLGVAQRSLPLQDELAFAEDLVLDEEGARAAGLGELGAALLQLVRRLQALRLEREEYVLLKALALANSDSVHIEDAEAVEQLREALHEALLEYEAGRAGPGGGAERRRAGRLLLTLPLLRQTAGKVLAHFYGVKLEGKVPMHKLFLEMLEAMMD

Regarding `COc1cc(/C=C2\SC(=O)N(Cc3cn(CCCNC(=O)[C@H](Cc4ccccc4)NC(=O)[C@H](Cc4ccc(O)c([N+](=O)[O-])c4)NC(=O)[C@@H](N)CCCNC(=N)NCC(F)(F)F)nn3)C2=O)ccc1Oc1ccc(C#N)cc1C(F)(F)F` [above peptidomimetic compound], the “levels of the ERRα protein in cells” value was “reduction of levels of the ERRα protein”.
